This note sets out measurements from patent US10457684B2, “[1,2,3]triazolo[4,5-d]pyrimidine derivatives” (Hoffmann-La Roche Inc., priority 2016, dated 2019).

Where only a bound is given, the exact number is not on record here.

For one assay, the target named is human CB2 receptor (Homo sapiens (Human), UniProt P34972). The experiment in a line: Radioligand binding assay, [3H]-CP-55,940, membranes of HEK cells expressing human CNR2. The conditions noted are these: 2.6 nM [3H]-CP-55,940, HEK cell membranes, 1 h at 30° C. On the procedure: (§1) Radioligand Binding Assay
(§2) The affinity of the compounds of the invention for cannabinoid receptors was determined using recommended amounts of membrane preparations (PerkinElmer) of human embryonic kidney (HEK) cells expressing the human CNR1 or CNR2 receptors in conjunction with 1.5 or 2.6 nM [3H]-CP-55,940 (Perkin Elmer) as radioligand, respectively. Binding was performed in binding buffer (50 mM Tris, 5 mM MgCl2, 2.5 mM EDTA, and 0.5% (wt/vol) fatty acid free BSA, pH 7.4 for CB1 receptor and 50 mM Tris, 5 mM MgCl2, 2.5 mM EGTA, and 0.1% (wt/vol) fatty acid free BSA, pH 7.4 for CB2 receptor) in a total volume of 0.2 mL for 1 h at 30° C. shaking. The reaction was terminated by rapid filtration through microfiltration plates coated with 0.5% polyethylenimine (UniFilter GF/B filter plate; Packard). Bound radioactivity was analyzed for Ki using nonlinear regression analysis (Activity Base, ID Business Solution, Limited), with the Kd values for [^3H]CP55,940 determined from saturation experiments.
The compounds according to formula (I) have an activity in the above assay (Ki) particularly of 0.5 nM to 10 μM, more particularly of 0.5 nM to 3 μM and most particularly of 0.5 nM to 100 nM.

The target in a further assay is human CB1 receptor (Homo sapiens (Human), UniProt P21554). The experiment in a line: Radioligand binding assay, [3H]-CP-55,940, membranes of HEK cells expressing human CNR1. The conditions noted are these: 1.5 nM [3H]-CP-55,940, HEK cell membranes, 1 h at 30° C. On the procedure: as §1, §2
Sequence of human CB1 receptor (P21554 whole entry): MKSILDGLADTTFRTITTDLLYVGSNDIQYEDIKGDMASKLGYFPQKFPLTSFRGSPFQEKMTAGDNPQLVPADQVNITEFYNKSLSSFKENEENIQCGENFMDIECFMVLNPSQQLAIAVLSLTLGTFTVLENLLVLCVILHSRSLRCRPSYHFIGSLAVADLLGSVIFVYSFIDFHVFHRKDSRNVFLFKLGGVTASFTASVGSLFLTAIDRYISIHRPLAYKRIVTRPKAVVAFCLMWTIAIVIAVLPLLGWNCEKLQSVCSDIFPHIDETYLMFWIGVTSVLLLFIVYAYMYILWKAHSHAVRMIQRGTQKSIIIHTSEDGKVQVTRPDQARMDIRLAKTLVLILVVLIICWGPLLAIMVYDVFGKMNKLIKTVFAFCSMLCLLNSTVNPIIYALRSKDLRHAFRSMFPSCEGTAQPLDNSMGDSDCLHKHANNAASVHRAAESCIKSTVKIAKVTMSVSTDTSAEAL

Sequence of human CB2 receptor (P34972 whole entry): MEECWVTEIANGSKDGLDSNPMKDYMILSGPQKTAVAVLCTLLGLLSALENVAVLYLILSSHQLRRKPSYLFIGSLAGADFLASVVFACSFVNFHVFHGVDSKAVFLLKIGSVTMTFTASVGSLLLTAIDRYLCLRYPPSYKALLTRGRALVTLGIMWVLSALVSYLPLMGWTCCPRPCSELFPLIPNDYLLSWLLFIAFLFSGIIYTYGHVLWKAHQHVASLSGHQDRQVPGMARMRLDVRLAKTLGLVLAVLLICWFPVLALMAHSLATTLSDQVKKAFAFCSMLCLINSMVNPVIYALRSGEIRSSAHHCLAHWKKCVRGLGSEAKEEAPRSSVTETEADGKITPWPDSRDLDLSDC

The Ki is the dissociation constant of the complex between target and ligand, obtained from inhibition or displacement. A high value points to weaker binding. `C#Cc1cccc(C2(C(F)(F)F)N=N2)c1Cn1nnc2c(N3CCC(F)(F)C3)nc(C(C)(C)C)nc21` [Example 13, 5-tert-Butyl-7-(3,3-difluoropyrrolidin-1-yl)-3-[[2-ethynyl-6-[3-(trifluoromethyl)diazirin-3-yl]phenyl]methyl]triazolo[4,5-d]pyrimidine]: the Ki worked out at 9 nM on human CB2 receptor and 147 nM on human CB1 receptor.

As to `C#Cc1cccc(C2(C(F)(F)F)N=N2)c1Cn1nnc2c(N3CC[C@H](O)C3)nc(C(C)(C)C)nc21` [Example 14, (3S)-1-[5-tert-Butyl-3-[[2-ethynyl-6-[3-(trifluoromethyl)diazirin-3-yl]phenyl]methyl]triazolo[4,5-d]pyrimidin-7-yl]pyrrolidin-3-ol], the Ki is 12 nM at human CB2 receptor and above 10000 nM at human CB1 receptor.

With `CC(C)(C)c1nc(N2CCC(F)(F)C2)c2nnn(Cc3ccccc3C3(C(F)(F)F)N=N3)c2n1` [Example 4, 5-tert-Butyl-7-(3,3-difluoropyrrolidin-1-yl)-3-({2-[3-(trifluoromethyl)-3H-diaziren-3-yl]phenyl}methyl)-3H-[1,2,3]triazolo[4,5-d]pyrimidine], the inhibitory constant (Ki) on human CB2 receptor is 4.2 nM; at human CB1 receptor it was 488 nM.

On to `C#CCCC1(CCNC(=O)c2nonc2Cn2nnc3c(N4CC[C@H](O)C4)nc(C(C)(C)C)nc32)N=N1` [Example 10, 4-({5-tert-Butyl-7-[(3S)-3-hydroxypyrrolidin-1-yl]-3H-[1,2,3]triazolo[4,5-d]pyrimidin-3-yl}methyl)-N-{2-[3-(but-3-yn-1-yl)-3H-diaziren-3-yl]ethyl}-1,2,5-oxadiazole-3-carboxamide], for which the inhibitory constant (Ki) is 200 nM on human CB2 receptor and above 10000 nM on human CB1 receptor.

For the molecule `CC(C)(C)c1nc(N2CCC3(C2)N=N3)c2nnn(Cc3ccccc3Cl)c2n1` [Example 3, 5-tert-Butyl-3-[(2-chlorophenyl)methyl]-7-(1,2,5-triazaspiro[2.4]hept-1-en-5-yl)-3H-[1,2,3]triazolo[4,5-d]pyrimidine], the inhibitory constant (Ki) worked out at 3.3 nM on human CB2 receptor and 321 nM at human CB1 receptor.

As for `Cc1nonc1Cn1nnc2c(N3CCC4(C3)N=N4)nc(C(F)(F)c3ccccc3)nc21` [Example 7, 5-[Difluoro(phenyl)methyl]-3-[(4-methyl-1,2,5-oxadiazol-3-yl)methyl]-7-(1,2,5-triazaspiro[2.4]hept-1-en-5-yl)-3H-[1,2,3]triazolo[4,5-d]pyrimidine], the Ki at human CB2 receptor came out at 45.5 nM; at human CB1 receptor, 5410 nM.

For the molecule `C#Cc1ccccc1Cn1nnc2c(N3CCC4(C3)N=N4)nc(C(F)(F)c3ccccc3)nc21` [Example 11, 5-[Difluoro(phenyl)methyl]-3-[(2-ethynylphenyl)methyl]-7-(1,2,6-triazaspiro[2.4]hept-1-en-6-yl)triazolo[4,5-d]pyrimidine], the inhibition constant (Ki) on human CB2 receptor came to 19 nM; at human CB1 receptor it was 465 nM.

For the molecule `CC(C)(C)c1nc(N2CCC(F)(F)C2)c2nnn(Cc3ccc(C4(C(F)(F)F)N=N4)cc3Cl)c2n1` [Example 8, 5-tert-Butyl-3-({2-chloro-4-[3-(trifluoromethyl)-3H-diaziren-3-yl]phenyl}methyl)-7-(3,3-difluoropyrrolidin-1-yl)-3H-[1,2,3]triazolo[4,5-d]pyrimidine], the inhibition constant (Ki) on human CB2 receptor is 55.6 nM; on human CB1 receptor, above 10000 nM.

With `C#Cc1cccc(C2(C(F)(F)F)N=N2)c1Cn1nnc2c(N3CCC(F)(F)C3)nc(C(F)(F)c3ccccc3)nc21` [Example 12, 5-[Difluoro(phenyl)methyl]-7-(3,3-difluoropyrrolidin-1-yl)-3-[[2-ethynyl-6-[3-(trifluoromethyl)diazirin-3-yl]phenyl]methyl]triazolo[4,5-d]pyrimidine], the inhibition constant (Ki) on human CB2 receptor stood at 31 nM; on human CB1 receptor it was 3390 nM.

As to `FC(F)(c1ccccc1)c1nc(N2CCC3(C2)N=N3)c2nnn(Cc3ccccc3Cl)c2n1` [Example 6, 3-[(2-Chlorophenyl)methyl]-5-[difluoro(phenyl)methyl]-7-(1,2,5-triazaspiro[2.4]hept-1-en-5-yl)-3H-[1,2,3]triazolo[4,5-d]pyrimidine], the results for the inhibition constant (Ki) at human CB2 receptor and at human CB1 receptor were 9.9 nM and 799 nM, respectively.

Turning to `C#Cc1cccc(C2(C(F)(F)F)N=N2)c1Cn1nnc2c(N3CC[C@H](O)C3)nc(C(F)(F)c3ccccc3)nc21` [Example 15, (3S)-1-[5-[Difluoro(phenyl)methyl]-3-[[2-ethynyl-6-[3-(trifluoromethyl)diazirin-3-yl]phenyl]methyl]triazolo[4,5-d]pyrimidin-7-yl]pyrrolidin-3-ol], the Ki was 58 nM at human CB2 receptor and above 10000 nM on human CB1 receptor.

Consider `Cc1nonc1Cn1nnc2c(N3CCC4(C3)N=N4)nc(C(C)(C)C)nc21` [Example 1, 5-tert-Butyl-3-[(4-methyl-1,2,5-oxadiazol-3-yl)methyl]-7-(1,2,5-triazaspiro[2.4]hept-1-en-5-yl)-3H-[1,2,3]triazolo[4,5-d]pyrimidine], for which the values for the inhibition constant (Ki) on human CB2 receptor and on human CB1 receptor were 16.1 nM and 2960 nM, respectively.

Take `C#CCCC1(CCNC(=O)c2nonc2Cn2nnc3c(N4CCC(F)(F)C4)nc(C(C)(C)C)nc32)N=N1` [Example 9, 4-{[5-tert-Butyl-7-(3,3-difluoropyrrolidin-1-yl)-3H-[1,2,3]triazolo[4,5-d]pyrimidin-3-yl]methyl}-N-{2-[3-(but-3-yn-1-yl)-3H-diaziren-3-yl]ethyl}-1,2,5-oxadiazole-3-carboxamide]: the values for the Ki at human CB2 receptor and on human CB1 receptor were 1160 nM and above 10000 nM, respectively.

Turning to `FC(F)(F)c1ccccc1Cn1nnc2c(N3CCC4(C3)N=N4)nc(C(F)(F)c3ccccc3)nc21` [Example 2, 5-[Difluoro(phenyl)methyl]-7-(1,2,5-triazaspiro[2.4]hept-1-en-5-yl)-3-{[2-(trifluoromethyl)phenyl]methyl}-3H-[1,2,3]triazolo[4,5-d]pyrimidine], the Ki at human CB2 receptor was 0.8 nM; at human CB1 receptor, 993 nM.

Turning to `C#Cc1ccccc1Cn1nnc2c(N3CCC4(C3)N=N4)nc(C(C)(C)C)nc21` [Example 5, 5-tert-Butyl-3-[(2-ethynylphenyl)methyl]-7-(1,2,5-triazaspiro[2.4]hept-1-en-5-yl)-3H-[1,2,3]triazolo[4,5-d]pyrimidine], the inhibitory constant (Ki) was 5.6 nM on human CB2 receptor and 132 nM on human CB1 receptor.
